Activity calls are given as the source filed them. The calls are words filed in the database; no cut-off is given here.
Columns and labels:
[1] = target: T1, Poly [ADP-ribose] polymerase 2 (Homo sapiens, UniProt Q9UGN5); experiment: Binding affinity to recombinant human PARP2 assessed as dissociation constant by SPR assay
[2] = Half life in BALB/c mouse at 25 mg/kg, po measured upto 24 hrs by LC-MS/MS analysis; type: ADME, organism-based; settings: in vivo
U-251 [3] = experiment: Inhibition of PARP1/2-mediated DNA repair in human U-251 cells assessed as increase in […] expression at 1 to 10 uM after 24 hrs in presence of TMZ by Western blot analysis; type: cell-based; settings: dose 1-10 µM
Homo sapiens = organism: Homo sapiens; experiment: Selectivity index, ratio of IC50 for inhibition of recombinant human PARP2 to IC50 for inhibition of recombinant human PARP1
U-87 MG [4] = experiment: Antitumor activity against human U-87MG cells xenografted in BALB/c mouse assessed as reduction in tumor volume at 25 mg/kg, po administered once daily for 5 days and measured on day 32 in presence of 30 mg/kg TMZ by MRI scanner; type: functional, U-87MG ATCC; settings: time 32 day
[5] = MRT(0 to t) in BALB/c mouse at 25 mg/kg, po measured upto 24 hrs by LC-MS/MS analysis; type: ADME, organism-based; settings: in vivo
T98G [6] = experiment: Inhibition of PARP1/2-mediated DNA repair in human T98G cells assessed as increase in […] expression at 1 to 10 uM after 24 hrs in presence of TMZ by Western blot analysis; type: cell-based; settings: dose 1-10 µM
[7] = Oral bioavailability in Beagle dog at 20 mg/kg measured upto 24 hrs by LC-MS/MS analysis; type: ADME, organism-based, Canis lupus familiaris; settings: in vivo
[8] = Acute toxicity in po dosed Crl: […](ICR)-BR mouse after 14 days; type: organism-based; settings: in vivo, time 14 day
[9] = AUC(0 to t) in BALB/c mouse at 25 mg/kg, po measured upto 24 hrs by LC-MS/MS analysis; type: ADME, organism-based; design: dose 25 mg/kg, time < 24 hrs, route po; settings: in vivo
[10] = MRT(0 to infinity) in Beagle dog at 0.4 mg/kg, iv measured upto 24 hrs by LC-MS/MS analysis; type: ADME, organism-based, Canis lupus familiaris; settings: in vivo
[11] = MRT(0 to infinity) in BALB/c mouse at 25 mg/kg, po measured upto 24 hrs by LC-MS/MS analysis; type: ADME, organism-based; settings: in vivo
[12] = MRT(0 to infinity) in Sprague-Dawley rat at 20 mg/kg, po measured upto 24 hrs by LC-MS/MS analysis; type: ADME, organism-based; settings: in vivo
[13] = Tmax in BALB/c mouse at 25 mg/kg, po measured upto 24 hrs by LC-MS/MS analysis; type: ADME, organism-based; settings: in vivo
U-87 MG [14] = experiment: Antitumor activity against human U-87MG cells xenografted in BALB/c mouse assessed as T/C ratio at 50 mg/kg, po administered once daily for 5 days and measured upto 32 days in presence of 30 mg/kg TMZ by MRI scanner; type: functional, U-87MG ATCC; settings: time <= 32 day
[15] = target: Poly [ADP-ribose] polymerase 1 (Homo sapiens, UniProt P09874); experiment: Binding affinity to recombinant human PARP1 assessed as dissociation constant by SPR assay
U-87 MG [16] = experiment: Antitumor activity against human U-87MG cells xenografted in BALB/c mouse assessed as reduction in tumor volume at 50 mg/kg, po administered once daily for 5 days and measured on day 8 by MRI scanner (reference value: 202 +/- 120.4 mm3); type: functional, U-87MG ATCC; settings: time 8 day
MX1 [17] = experiment: Antitumor activity against human MX1 cells xenografted in athymic nu/nu mouse assessed as tumor growth inhibition at 12.5 to 25 mg/kg, po administered once daily for 5 days and measured on day 7 in presence of 50 mg/kg TMZ; type: functional; settings: dose 12.5-25 mg/kg, time 7 day
[18] = AUC(0 to t) in Beagle dog at 20 mg/kg, po measured upto 24 hrs by LC-MS/MS analysis; type: ADME, organism-based, Canis lupus familiaris; design: time < 24 hrs, dose 20 mg/kg, route po; settings: in vivo
[19] = Tmax in Sprague-Dawley rat at 20 mg/kg, po measured upto 24 hrs by LC-MS/MS analysis; type: ADME, organism-based; settings: in vivo
T98G [20] = experiment: Inhibition of PARP1/2-mediated DNA repair in human T98G cells assessed as increase in […] expression at 1 to 10 uM after 24 hrs in absence of TMZ by Western blot analysis; type: cell-based; settings: dose 1-10 µM
Mus musculus = experiment: Toxicity in BALB/c mouse xenografted with human U-87MG cells assessed as effect on body weight at 50 mg/kg, po administered once daily for 5 days and measured on day 8 in presence of 30 mg/kg TMZ (reference value: 18.5 +/- 1 g); type: organism-based; settings: in vivo, 192 h, time 8 day
U-251 [21] = experiment: Cytotoxicity against TMZ-resistant human U-251 cells assessed as reduction in cell viability at 5 to 10 uM incubated for 72 hrs in presence of TMZ by MTT assay; type: functional, cell-based; settings: dose 5-10 µM
[22] = target: T1, Poly [ADP-ribose] polymerase 2; experiment: Inhibition of recombinant human PARP2 using NAD+ as substrate incubated for 1 hr by ELISA
MX1 [23] = experiment: Inhibition of PARP1/2 in human MX1 cells assessed as reduction in PAR formation at 1 to 10 uM after 24 hrs by Western blot analysis; type: cell-based; settings: dose 1-10 µM
[24] = Half life in Beagle dog at 0.4 mg/kg, iv measured upto 24 hrs by LC-MS/MS analysis; type: ADME, organism-based, Canis lupus familiaris; settings: in vivo
T98G [25] = experiment: Inhibition of PARP1/2-mediated DNA repair in human T98G cells assessed as reduction in PAR formation at 1 to 10 uM after 24 hrs in absence of TMZ by Western blot analysis; type: cell-based; settings: dose 1-10 µM
[26] = MRT(0 to infinity) in Beagle dog at 20 mg/kg, po measured upto 24 hrs by LC-MS/MS analysis; type: ADME, organism-based, Canis lupus familiaris; settings: in vivo
U-87 MG [27] = experiment: Antitumor activity against human U-87MG cells xenografted in BALB/c mouse assessed as reduction in tumor volume at 50 mg/kg, po administered once daily for 5 days and measured on day 8 in presence of 30 mg/kg TMZ by MRI scanner (reference value: 202 +/- 120.4 mm3); type: functional, U-87MG ATCC; settings: time 8 day
U-87 MG [28] = experiment: Antitumor activity against human U-87MG cells xenografted in BALB/c mouse assessed as reduction in tumor volume at 50 mg/kg, po administered once daily for 5 days and measured on day 32 in presence of 30 mg/kg TMZ by MRI scanner; type: functional, U-87MG ATCC; settings: time 32 day
MDA-MB-436 = experiment: Antitumor activity against human MDA-MB-436 cells xenografted in athymic nu/nu mouse assessed as tumor growth inhibition at 20 to 80 mg/kg, po administered once daily for 17 days; type: functional; settings: dose 20-80 mg/kg, time 17 day
Daoy = experiment: Cytotoxicity against human Daoy cells assessed as reduction in cell viability at 5 to 10 uM incubated for 72 hrs in presence of TMZ by MTT assay; type: functional, cell-based; settings: dose 5-10 µM
[29] = AUC(0 to t) in Beagle dog at 0.4 mg/kg, iv measured upto 24 hrs by LC-MS/MS analysis; type: ADME, organism-based, Canis lupus familiaris; design: time < 24 hrs, dose 0.4 mg/kg, route iv; settings: in vivo
[30] = MRT(0 to t) in Beagle dog at 0.4 mg/kg, iv measured upto 24 hrs by LC-MS/MS analysis; type: ADME, organism-based, Canis lupus familiaris; settings: in vivo
U-251 [31] = experiment: Cytotoxicity against human U251 cells assessed as reduction in cell viability at 5 to 10 uM incubated for 72 hrs in presence of TMZ by MTT assay; type: functional, cell-based; settings: dose 5-10 µM

T1 sequence (Q9UGN5 whole entry): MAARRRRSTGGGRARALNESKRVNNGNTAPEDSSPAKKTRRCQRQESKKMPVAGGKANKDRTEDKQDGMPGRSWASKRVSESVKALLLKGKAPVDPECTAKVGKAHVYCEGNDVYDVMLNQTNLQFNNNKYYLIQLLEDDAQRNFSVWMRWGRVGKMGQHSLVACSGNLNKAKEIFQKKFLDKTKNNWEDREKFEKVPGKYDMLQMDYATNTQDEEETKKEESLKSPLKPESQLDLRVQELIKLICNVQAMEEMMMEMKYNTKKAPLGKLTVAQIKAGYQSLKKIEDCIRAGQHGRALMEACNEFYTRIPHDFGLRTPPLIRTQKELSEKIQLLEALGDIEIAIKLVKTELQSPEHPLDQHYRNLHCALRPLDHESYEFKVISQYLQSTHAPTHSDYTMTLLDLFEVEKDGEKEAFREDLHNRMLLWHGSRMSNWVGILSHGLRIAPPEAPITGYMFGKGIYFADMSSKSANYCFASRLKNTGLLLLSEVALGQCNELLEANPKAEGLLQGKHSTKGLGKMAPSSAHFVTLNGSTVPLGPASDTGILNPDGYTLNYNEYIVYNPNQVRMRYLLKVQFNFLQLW
Chain of Poly [ADP-ribose] polymerase 1 (P09874 whole entry): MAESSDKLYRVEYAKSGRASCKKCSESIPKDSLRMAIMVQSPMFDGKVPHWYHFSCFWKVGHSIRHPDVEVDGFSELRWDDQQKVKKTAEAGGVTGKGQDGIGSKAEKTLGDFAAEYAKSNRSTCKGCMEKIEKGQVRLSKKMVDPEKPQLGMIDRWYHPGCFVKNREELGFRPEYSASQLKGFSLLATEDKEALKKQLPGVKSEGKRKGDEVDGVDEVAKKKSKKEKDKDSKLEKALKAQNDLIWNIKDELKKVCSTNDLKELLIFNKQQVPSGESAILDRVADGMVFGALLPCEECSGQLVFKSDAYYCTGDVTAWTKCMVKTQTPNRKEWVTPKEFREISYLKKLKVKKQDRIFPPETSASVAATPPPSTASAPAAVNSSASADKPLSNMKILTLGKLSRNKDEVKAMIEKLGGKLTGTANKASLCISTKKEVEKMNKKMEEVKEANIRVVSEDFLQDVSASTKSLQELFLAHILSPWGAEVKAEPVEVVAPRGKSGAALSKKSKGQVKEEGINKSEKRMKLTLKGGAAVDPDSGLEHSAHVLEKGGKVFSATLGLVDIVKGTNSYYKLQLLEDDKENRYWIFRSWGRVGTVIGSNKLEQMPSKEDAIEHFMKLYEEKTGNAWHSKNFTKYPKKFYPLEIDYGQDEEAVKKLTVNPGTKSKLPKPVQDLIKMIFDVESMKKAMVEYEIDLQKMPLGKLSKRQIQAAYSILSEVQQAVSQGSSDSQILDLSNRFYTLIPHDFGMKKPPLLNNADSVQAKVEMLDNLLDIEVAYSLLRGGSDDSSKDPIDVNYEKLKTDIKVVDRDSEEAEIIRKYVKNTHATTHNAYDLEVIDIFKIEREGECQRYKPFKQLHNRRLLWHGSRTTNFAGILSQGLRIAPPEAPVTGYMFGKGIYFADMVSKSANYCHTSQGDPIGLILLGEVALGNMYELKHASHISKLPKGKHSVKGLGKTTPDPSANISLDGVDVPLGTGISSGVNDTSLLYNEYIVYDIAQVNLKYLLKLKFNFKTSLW

Question: Which Kd [1] does the source give for `CC[C@@H]1CN(C(=O)c2cc(Cn3c(=O)[nH]c(=O)c4ccccc43)ccc2F)CCN1CC` here?
Answer: The Kd was 51.5 nM.

Question: And the half-life [2]?
Answer: The half-life was 0.57 h.

Question: What about the inhibition (U-251 [3]) of the same molecule?
Answer: Its inhibition is “Active”.

Question: And the Ratio IC50 (Homo sapiens)?
Answer: The Ratio IC50 was 45.

Question: And the Activity (U-87 MG [4])?
Answer: The Activity was 10.3 mm3.

Question: What about the MRT last at 24 h [5] of the same molecule?
Answer: Its MRT last at 24 h is 0.92 h.

Question: What about the inhibition (T98G [6]) of the same molecule?
Answer: Its inhibition is “Active”.

Question: And the bioavailability [7]?
Answer: The bioavailability was 48.3%.

Question: What about the LD50 at 336 h [8] of the same molecule?
Answer: Its LD50 at 336 h is 3500 mg/kg.

Question: What about the AUC(0-t) at 24 h [9] of the same molecule?
Answer: The AUC(0-t) at 24 h was 555 ng·h/mL.

Question: What about the MRT inf [10] of the same molecule?
Answer: Its MRT inf is 1.43 h.

Question: What about the MRT inf [11] of the same molecule?
Answer: The MRT inf was 1.05 h.

Question: And the MRT inf [12]?
Answer: The MRT inf was 1.37 h.

Question: And the Tmax [13]?
Answer: The Tmax was 0.5 h.

Question: What about the T/C (U-87 MG [14]) of the same molecule?
Answer: The T/C was 14.1%.

Question: And the Kd [15]?
Answer: Its Kd is 1.92 nM.

Question: And the Activity (U-87 MG [16])?
Answer: Its Activity is 218.6 mm3.

Question: And the TGI (MX1 [17])?
Answer: Its TGI is >90%.

Question: What about the AUC(0-t) at 24 h [18] of the same molecule?
Answer: The AUC(0-t) at 24 h was 34200 ng·h/mL.

Question: What about the Tmax [19] of the same molecule?
Answer: The Tmax was 4.98 min.

Question: And the inhibition (T98G [20])?
Answer: Its inhibition is “Active”.

Question: What about the Activity (Mus musculus) of the same molecule?
Answer: The Activity was 16.3 g.

Question: And the Activity (U-251 [21])?
Answer: Its Activity is “Active”.

Question: What about the IC50 [22] of the same molecule?
Answer: The IC50 was 23.1 nM.

Question: What about the inhibition (MX1 [23]) of the same molecule?
Answer: Its inhibition is “Active”.

Question: And the half-life [24]?
Answer: The half-life was 1.37 h.

Question: And the inhibition (T98G [25])?
Answer: The inhibition was “Active”.

Question: And the MRT inf [26]?
Answer: The MRT inf was 4.85 h.

Question: And the Activity (U-87 MG [27])?
Answer: Its Activity is 0 mm3.

Question: What about the Activity (U-87 MG [28]) of the same molecule?
Answer: The Activity was 11.9 mm3.

Question: What about the TGI (MDA-MB-436) of the same molecule?
Answer: The TGI was 68%.

Question: And the Activity (Daoy)?
Answer: Its Activity is “Active”.

Question: What about the AUC(0-t) at 24 h [29] of the same molecule?
Answer: Its AUC(0-t) at 24 h is 1410 ng·h/mL.

Question: What about the MRT last at 24 h [30] of the same molecule?
Answer: The MRT last at 24 h was 1.31 h.

Question: What about the Activity (U-251 [31]) of the same molecule?
Answer: Its Activity is “Active”.
